Test results as given in patent US20230173089A1, “Q-ER PEPTIDE” (Biotempt B.V., priority 2019, published 2023).
Where two headings read alike, the source gives them in different places.

Key:
[1] = test system: non-obese diabetic (NOD) mouse; experiment: type 1 diabetes development in NOD mice; type: in vivo; conditions: 250 µg i.p. three times per week, female NOD mice from 14 weeks, max five weeks
Source text: The non-obese diabetic (NOD) mouse spontaneously develops type 1 diabetes (T1D) and has served as a model for understanding the genetic and immunological basis, and treatment, of T1D. NOD mice are used in these studies. Most diabetic NOD mice suffer from insulin deficiency diabetes, with the underlying cause of the pancreatic beta-cell loss or destruction most likely a result of an inflammatory process in the micro-vasculature surrounding endocrine beta-cell tissues and genetically accelerated autoimmunity is suspected. Diabetes is assessed by measurement of the venous blood glucose level using an Abbott Medisense Precision glucometer. Mice are considered diabetic after two consecutive glucose measurements ≥11 mmol/l (200 mg/dl). Onset of diabetes is dated from the first consecutive reading of ≥11 mmol/l. In vivo treatment: groups of 14 weeks-old female NOD mice (n=12 per group) are treated with synthetic peptide SEQ ID NO:5 (AQGVAPG), SEQ ID NO:6 (LQGVAPG), SEQ ID NO:7 (AQGVLPG), SEQ ID NO:8 (LQGVLPG) or vehicle (PBS), respectively. Treatment is done by injecting 250 µg peptide diluted in PBS three times per week intraperitoneally (i.p.). Control mice are treated with PBS only. The treatment is discontinued when all PBS treated NOD mice in the experiment have developed diabetes. This is generally at the age of 19 weeks. The peptide and PBS treatments are done for a maximum of five weeks. In instances of hyperglycaemia of ≥20 mmol/l the mice are killed to avoid prolonged discomfort. The remainder mice are kept alive up to the age of 35 weeks without any further treatment.

[2] = test system: Wistar rats with hemorrhagic shock; experiment: hemorrhagic shock and resuscitation in rats (Example 15, SIRS); type: in vivo, rat; conditions: single injection 30 minutes after induction of hemorrhagic shock
Experimental: Severe hemorrhagic shock followed by resuscitation induces a massive inflammatory response, which may culminate into systemic inflammatory response syndrome, multiple organ dysfunction syndrome and finally death. Treatments that effectively prevent this inflammation are limited so far. […] Considering this powerful anti-inflammatory effect, it was investigated whether administration of 0.5 ml i.p. of synthetic heptapeptide SEQ ID NO:5 (AQGVAPG), SEQ ID NO:6 (LQGVAPG), SEQ ID NO:7 (AQGVLPG), SEQ ID NO:8 (LQGVLPG), dissolved in 0.9% NaCl at a concentration of 25 mg/ml, or vehicle (0.9% NaCl), respectively, during the SIRS-phase of hemorrhagic shock, is able to attenuate the inflammatory response associated with this condition.
Hemorrhagic shock is induced in groups of 6 rats for 60 minutes by blood withdrawal until a mean arterial pressure of 40 mmHg is reached. Thirty minutes after induction of hemorrhagic shock, rats received a single injection with one of synthetic heptapeptide SEQ ID NO:5 (AQGVAPG), SEQ ID NO:6 (LQGVAPG), SEQ ID NO:7 (AQGVLPG), SEQ ID NO:8 (LQGVLPG), or 0.9% NaCl solution, as control. Treatment with synthetic heptapeptide SEQ ID NO:5 (AQGVAPG), SEQ ID NO:6 (LQGVAPG), SEQ ID NO:7 (AQGVLPG), SEQ ID NO:8 (LQGVLPG) prevents systemic release of TNF-α and IL-6 and is associated with reduced TNF-α, IL-6 and E-selectin mRNA transcript levels in the liver, with reduced neutrophil infiltration into the liver and is associated with reduced liver damage.
Animals. Adult male specific pathogen-free Wistar rats weighing 350-400 g are used. Rats are housed under barrier conditions at 25° C. with a twelve-hour light/dark cycle, and are allowed food and water ad libitum. The experimental protocol adheres to the rules laid down in national law that serves the implementation of “Guidelines on the protection of experimental animals” by the Council of Europe (1986), Directive 86/609/EC. hCG-related synthetic oligopeptides. Rats are food deprived overnight before the start of the experiment, but are allowed water ad libitum. Rats are anesthetized using a mixture of N2 O/O2 /isoflurane (Pharmachemie B.V., Haarlem, The Netherlands). Body temperature is continuously maintained at 37.5° C. by placing the rats on a thermo controlled “half-pipe” (UNO, Rotterdam, The Netherlands). Endotracheal intubation is performed, and rats are ventilated at 60 breaths per minute with a mixture of N2 O/O2 /isoflurane. Polyethylene tubes (PE-50, Becton Dickinson; St. Michielsgestel, The Netherlands) are flushed with heparin and placed via the right carotid artery in the aorta and in the right internal jugular vein. A 5 cm midline laparotomy is performed and a supra pubic catheter is inserted to monitor urine production. Hemorrhagic shock is induced by blood withdrawal, reducing the circulating blood volume until a mean arterial pressure (MAP) of 40 mmHg is reached. This level of hypotension is maintained for 60 minutes. Thirty minutes after the induction of hemorrhagic shock, rats received a single intravenous (IV) bolus injection of heptapeptide solution or vehicle. Sixty minutes after induction of hemorrhagic shock, rats are resuscitated by four times their shed blood volume over a period of 30 minutes to normalize the MAP, and monitored for another 120 minutes after which they are sacrificed. The rats receive no heparin before or during the experiment. Sham animals are subjected to the same surgical procedure as the hemorrhagic shock animals, but without blood withdrawal and administration of heptapeptide.

[3] = test system: male C57B1/6N mice with renal ischemia/reperfusion injury; conditions: cited from earlier work
[4] = test system: allogenic kidney transplantation recipients; conditions: 50 mg/kg twice daily i.p.; cited from earlier work
[5] = test system: healthy volunteers given E. coli endotoxin; conditions: cited from earlier work
[6] = test system: high-dose lipopolysaccharide induced inflammation; conditions: previous study; cited from earlier work
[7] = test system: Streptozotocin-induced diabetic rats; experiment: renal function and urinary protein leakage in streptozotocin-induced diabetic rats; type: in vivo, rat; conditions: 140 minutes i.v. infusion, 5 nmol x min(-1) x kg(-1) body wt
Experimental: Acute effects of 140 minutes i.v. infusion of heptapeptide with SEQ ID NO:8 (LQGVLPG; 5 nmol x min(-1) x kg(-1) body wt) on renal function and urinary protein leakage are studied in anesthetized diabetic male rats two weeks after streptozotocin injection without insulin treatment. Streptozotocin-induced diabetic rats are studied with (N = 12) and without heptapeptide (N = 11) treatment. The two groups show a similarly elevated blood glucose concentration during the study. Age-matched normal rats serve as controls (N = 5). Glomerular filtration rate (GFR) is measured by inulin clearance in the basal state and during a 60-minute glycine infusion (0.22 mmol x min(-1) x kg(-1) body wt)-resembling a protein load challenge-to test the renal functional reserve in all three groups.
In the basal state, the non-heptapeptide-treated diabetic rats display increased GFR and increased total protein leakage when compared with normal rats. Whereas normal rats respond to glycine infusion with an increase in GFR, no increase occurs in diabetic rats not treated with heptapeptide. In diabetic rats given heptapeptide, this reduces the initial glomerular hyperfiltration prior to glycine infusion. […] Thus, short-term infusion of heptapeptide has beneficial effects on protein leakage and hyperfiltration and improves the renal functional reserve in rats.

[8] = test system: colonic inflammation induced by dextran sulfate sodium (DSS); conditions: Gln supplementation; cited from earlier work
mTOR = conditions: cited from earlier work
[9] = test system: murine polymicrobial sepsis model; conditions: cited from earlier work

Compound | beta-cell failure with diabetes development (occurrence of diabetes after the age of 17 weeks) [1] | TNF-α, IL-6 and E-selectin mRNA transcript levels in the liver [2] | liver damage [2] | neutrophil infiltration into the liver [2] | systemic release of TNF-α and IL-6 [2] | other results
AQGVAPG (Immunomodulatory peptide) [SEQ ID NO:5] | significantly reduces | reduced | reduced | reduced | prevents | –
AQGV (Immunomodulatory peptide) [SEQ ID NO:2, synthetic linear glutamine-containing tetrapeptide derived from beta-human chorionic gonadotropin] | – | – | – | – | – | survival after IRI ([3]; 20-50 mg/kg twice daily i.p. for four days, started 24 hours after IRI): markedly improved; CTGF up-regulation (marker of post-ischemic fibrosis) in renal tissue ([3]; four weeks after IRI): significantly less; tubular epithelial cell proliferation ([3]; mouse, in vivo): significantly enhanced; acute tubular injury ([3]; two days after IRI): diminished; renal function and allograft survival [4]: improved; endotoxin induced increase in plasma levels of IL-6, IL-8, IL-1RA, MCP-1, MIP-1α, MIP-1β and VCAM-1 ([5]; 180 mg/kg (highest dose)): significant attenuation; fever and flu-like symptoms ([5]; highest dose (180 mg/kg)): reduced; endotoxin induced increase in plasma levels of IL-6, IL-8, IL-1RA, MCP-1, MIP-1α, MIP-1β and VCAM-1 ([5]; lower doses (30, 90 mg/kg)): not with the lower doses tested; inflammatory response and mortality following high-dose lipopolysaccharide [6]: inhibit
LQGVAPG (Immunomodulatory peptide) [SEQ ID NO:6] | significantly reduces | reduced | reduced | reduced | prevents | –
LQGVLPG (Immunomodulatory peptide) [SEQ ID NO:8] | significantly reduces | reduced | reduced | reduced | prevents | initial glomerular hyperfiltration (GFR) prior to glycine infusion [7]: reduces; renal functional reserve (GFR response to glycine infusion) [7]: restores normal; total protein leakage compared with rats not given heptapeptide [7]: lower
NC(=O)CC[C@H](N)C(=O)O [L-Glutamine] | – | – | – | – | – | degree of microscopic injury induced by dextran sulfate sodium (DSS) [8]: attenuated; activity as activators of mTOR or inhibitors of autophagy compared with other amino acids (mTOR; alone or in combination): more potent; mTOR associated autophagic inhibitory effects on human cells (mTOR; human cells): most prominent
LQGV (Immunomodulatory peptide) [SEQ ID NO:1, synthetic linear glutamine-containing tetrapeptide derived from beta-human chorionic gonadotropin] | – | – | – | – | – | survival during the first 5 days after moderate cecal ligation and puncture ([9]; 5 mg/kg bodyweight, control 20%): 50%; survival in severe cecal ligation and puncture model ([9]; 5 mg/kg combined with fluid resuscitation and antibiotics, fluid resuscitation and antibiotics alone 30%): 70%; cytokine and E-selectin levels in peritoneal lavage fluid, lungs and plasma ([9]; moderate cecal ligation and puncture, 5 mg/kg): reduced; pulmonary nuclear factor-κB activation and pulmonary damage ([9]; mouse, in vivo): reduced; inflammatory response and mortality following high-dose lipopolysaccharide [6]: inhibit
AQGVLPG (Immunomodulatory peptide) [SEQ ID NO:7] | significantly reduces | reduced | reduced | reduced | prevents | –
